Measured values taken from patent US7517517B2 (Janssen Pharmaceutica N.V., priority 2002, dated 2009).
Where “and” joins values, the source holds several entries; their conditions need not be identical. Identical values can stand only once. Counter-ions that a name gives are not always drawn. Like-named read-outs stand apart in the source and are kept apart here.

Assays:
rat mGlu1a receptor [1] = target: T1, rat mGlu1a receptor (Rattus norvegicus, UniProt P23385); experiment: [3H]Compound A binding to rat mGlu1a receptor CHO-dhfr− membranes (saturation, kinetics, inhibition); conditions: for inhibition of [3H]Compound A binding (in words): rat mGlu1a receptor CHO-dhfr− membranes; for Ki: 2.5 nM [3H]Compound A, 30 min at 4° C., mean ± SD of 3–4 experiments
T1 construct: host or cells: CHO-dhfr- cells
T1 sequence (P23385 19-1199): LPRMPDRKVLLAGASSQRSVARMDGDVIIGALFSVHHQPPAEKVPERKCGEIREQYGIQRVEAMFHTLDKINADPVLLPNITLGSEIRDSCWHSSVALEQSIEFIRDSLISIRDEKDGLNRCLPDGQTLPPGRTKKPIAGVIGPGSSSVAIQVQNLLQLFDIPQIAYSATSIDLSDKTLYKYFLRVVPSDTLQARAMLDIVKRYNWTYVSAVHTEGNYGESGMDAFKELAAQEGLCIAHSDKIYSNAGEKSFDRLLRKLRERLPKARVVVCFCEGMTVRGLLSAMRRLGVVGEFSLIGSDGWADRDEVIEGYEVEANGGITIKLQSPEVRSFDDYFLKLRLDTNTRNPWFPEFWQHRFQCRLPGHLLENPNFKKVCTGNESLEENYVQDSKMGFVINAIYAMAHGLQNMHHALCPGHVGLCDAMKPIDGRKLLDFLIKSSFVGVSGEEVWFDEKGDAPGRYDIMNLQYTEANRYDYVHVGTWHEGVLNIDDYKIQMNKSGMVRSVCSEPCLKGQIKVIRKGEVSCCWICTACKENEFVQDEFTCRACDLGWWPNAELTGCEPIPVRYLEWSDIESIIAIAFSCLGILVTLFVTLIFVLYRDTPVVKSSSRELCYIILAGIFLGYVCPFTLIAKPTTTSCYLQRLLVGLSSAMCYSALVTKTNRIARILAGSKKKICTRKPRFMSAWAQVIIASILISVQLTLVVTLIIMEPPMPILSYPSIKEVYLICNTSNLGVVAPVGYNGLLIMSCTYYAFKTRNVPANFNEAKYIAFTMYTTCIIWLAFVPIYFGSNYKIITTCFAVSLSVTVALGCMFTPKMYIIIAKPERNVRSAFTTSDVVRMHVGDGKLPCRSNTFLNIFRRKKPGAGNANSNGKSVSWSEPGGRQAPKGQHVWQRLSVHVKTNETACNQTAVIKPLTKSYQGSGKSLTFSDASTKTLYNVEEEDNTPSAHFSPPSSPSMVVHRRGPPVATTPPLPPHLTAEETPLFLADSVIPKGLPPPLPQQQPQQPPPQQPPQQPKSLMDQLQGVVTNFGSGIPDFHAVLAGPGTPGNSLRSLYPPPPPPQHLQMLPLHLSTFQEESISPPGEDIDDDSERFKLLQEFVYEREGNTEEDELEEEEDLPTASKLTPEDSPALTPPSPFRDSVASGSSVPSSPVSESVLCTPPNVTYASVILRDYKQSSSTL

rat mGlu1a receptor [2] = target: T1, rat mGlu1a receptor; experiment: [3H]quisqualate binding to rat mGlu1a receptor CHO-dhfr− membranes (saturation, inhibition); conditions: inhibition of [3H]quisqualate binding, rat mGlu1a receptor CHO-dhfr− membranes; mean ± SD of 2 experiments
[3] = target: T2, cloned rat mGlu1 receptor (Rattus norvegicus, UniProt P23385); experiment: Signal transduction at the cloned rat mGlu1 receptor in CHO cells (glutamate-induced Ca2+ rise, FLIPR); type: cell-based
T2 construct: expressed in transfected cells; host or cells: CHO cells
T2 sequence (P23385 19-1199): as above

[4] = inhibition of glutamate-induced intracellular Ca2+ rise, CHO cells expressing mGlu1 receptor, compounds with pIC50 between 7 and 8
[5] = 50% inhibition of the glutamate-induced intracellular Ca2+ rise, CHO cells, FLIPR

**Q.** For `CCc1cc2cc(-c3cc4c(o3)CCCC4)ccc2nc1C` (as salt: HCl) [Compound 526], which melting point is on record?
**A.** The melting point was 248 °C.

**Q.** Which “inhibition of [3H]Compound A binding (in words)” value (shortened to “inhibition”) (rat mGlu1a receptor [1]) does the source give for `N[C@@]1(C(=O)O)CC[C@@H](C(=O)O)C1` [1S,3R-ACPD, reference compound] here?
**A.** Its value is “did not inhibit”.

**Q.** What about the Hill coefficient (rat mGlu1a receptor [2]) of the same compound?
**A.** Its Hill coefficient is 0.97 ± 0.01.

**Q.** Which Ki (rat mGlu1a receptor [1]) does the source give for `N[C@H](C(=O)O)c1cc(O)cc(O)c1` [(S)-3,5-DHPG, reference compound] here?
**A.** Its Ki is over 1e+06 nM.

**Q.** What about the “inhibition” value (rat mGlu1a receptor [1]) of the same compound?
**A.** Its value is “did not inhibit”.

**Q.** What about the Hill coefficient (rat mGlu1a receptor [2]) of the same compound?
**A.** The Hill coefficient was 0.97 ± 0.00.

**Q.** And the Ki (rat mGlu1a receptor [2])?
**A.** The Ki was 1.42 µM.

**Q.** With `N[C@H](C(=O)O)c1ccc(C(=O)O)c(O)c1` [(S)-4C3HPG] as the compound, how does the Ki (rat mGlu1a receptor [1]) read?
**A.** Its Ki is over 1e+06 nM.

**Q.** And the Hill coefficient (rat mGlu1a receptor [2])?
**A.** The Hill coefficient was 0.98 ± 0.02.

**Q.** What about the Ki (rat mGlu1a receptor [2]) of the same compound?
**A.** The Ki was 1.65 ± 0.06 µM.

**Q.** With `N[C@H](C(=O)O)c1ccc(C(=O)O)c(O)c1` [(S)-4C-3HPG, reference compound] as the compound, how does the “inhibition” value (rat mGlu1a receptor [1]) read?
**A.** The value was “did not inhibit”.

**Q.** With `N[C@H](C(=O)O)c1ccc(C(=O)O)cc1` [(S)-4CPG, reference compound] as the compound, how does the Ki (rat mGlu1a receptor [1]) read?
**A.** The Ki was over 1e+06 nM.

**Q.** And the “inhibition” value (rat mGlu1a receptor [1])?
**A.** The value was “did not inhibit”.

**Q.** And the Hill coefficient (rat mGlu1a receptor [2])?
**A.** The Hill coefficient was 0.98 ± 0.00.

**Q.** What about the Ki (rat mGlu1a receptor [2]) of the same compound?
**A.** The Ki was 4.51 ± 0.78 µM.

**Q.** Which Ki (rat mGlu1a receptor [1]) does the source give for `NC1(C(=O)O)CCc2cc(C(=O)O)ccc21` (stereo not shown) [AIDA, reference compound] here?
**A.** The Ki was over 1e+06 nM.

**Q.** And the “inhibition” value (rat mGlu1a receptor [1])?
**A.** Its value is “did not inhibit”.

**Q.** What about the Hill coefficient (rat mGlu1a receptor [2]) of the same compound?
**A.** The Hill coefficient was 0.98 ± 0.03.

**Q.** And the Ki (rat mGlu1a receptor [2])?
**A.** Its Ki is 98.3 ± 15.4 µM.

**Q.** Which melting point does the source give for `CCc1cc2cc(C(=O)CC(C)C)ccc2nc1Cl` [Compound 2] here?
**A.** Its melting point is 82 °C.

**Q.** With `CCc1cc2cc(C(=O)C3Cc4ccccc4C3)ccc2nc1Cl` [Compound 3] as the compound, how does the melting point read?
**A.** The melting point was 145 °C.

**Q.** Which melting point does the source give for `CCc1cc2cc(C(=O)[C@H]3CC[C@@H](OC)CC3)ccc2nc1Cl` [Compound 4] here?
**A.** The melting point was 123 °C.

**Q.** For `CCc1cc2cc(C(=O)C3CCC(OC)CC3)ccc2nc1C(C)=O` (stereo not shown) [Compound 6], which melting point is on record?
**A.** The melting point was 108 °C.

**Q.** For `CCc1cc2cc(C(=O)C3CCC(OC)CC3)ccc2[nH]c1=O` (stereo not shown) [Compound 9], which melting point is on record?
**A.** The melting point was 226 °C.

**Q.** Which melting point does the source give for `CCc1cc2cc(C(=O)[C@H]3CC[C@@H](OC)CC3)ccc2nc1NCCOC` [Compound 10] here?
**A.** Its melting point is 115 °C.

**Q.** Which melting point does the source give for `CCc1cc2cc(C(=O)C3CCC(OC)CC3)ccc2nc1C#C[Si](C)(C)C` (stereo not shown) [Compound 14] here?
**A.** The melting point was 114 °C.

**Q.** What about the IC50 [3] of the same compound?
**A.** Its IC50 is 0.0631 µM.

**Q.** With `C#Cc1nc2ccc(C(=O)C3CCC(OC)CC3)cc2cc1CC` (stereo not shown) [Compound 15] as the compound, how does the melting point read?
**A.** Its melting point is 132 °C and 133 °C.

**Q.** And the IC50 [3, 4]?
**A.** The IC50 was 0.0117 µM.

**Q.** Which melting point does the source give for `CCc1cc2cc(C(=O)C3CCC(OC)CC3)ccc2nc1F` (stereo not shown) [Compound 19] here?
**A.** Its melting point is 92 °C.

**Q.** For `CCc1cc2cc(C(=O)[C@H]3CC[C@H](OC)CC3)ccc2nc1F` [Compound 20], which melting point is on record?
**A.** The melting point was 114 °C.

**Q.** Which melting point does the source give for `CCc1cc2cc(C(=O)[C@H]3CC[C@@H](OC)CC3)ccc2nc1I` [Compound 21] here?
**A.** The melting point was 110 °C.

**Q.** Which melting point does the source give for `CCc1cc2cc(C(=O)[C@H]3CC[C@@H](OC)CC3)ccc2nc1C#N` [Compound 22] here?
**A.** Its melting point is 138 °C.

**Q.** Which melting point does the source give for `CCc1cnc2ccc(C(=O)C3CCC(OC)CC3)cc2c1` (stereo not shown) [Compound 25] here?
**A.** The melting point was 88 °C.

**Q.** Which results are given for `CCc1cc2cc(C(=O)C3CCC(OC)CC3)ccc2nc1C` (stereo not shown) [Compound 27]?
**A.** melting point: 110 °C; pIC50 [3, 5]: 8.527

**Q.** With `C=Cc1nc2ccc(C(=O)C3CCC(OC)CC3)cc2cc1CC` (stereo not shown) [Compound 28] as the compound, how does the melting point read?
**A.** Its melting point is 108 °C.

**Q.** Which melting point does the source give for `CCc1cc2cc(C(=O)C3CCC(OC)CC3)ccc2nc1-c1ccccc1` (stereo not shown) [Compound 29] here?
**A.** The melting point was 112 °C.

**Q.** For `CCc1cc2cc(C(=O)C3CCC(OC)CC3)ccc2nc1-c1cccs1` (stereo not shown) [Compound 30], which melting point is on record?
**A.** Its melting point is 142 °C.

**Q.** For `CCc1cc2cc(C(=O)C3CCC(OC)CC3)ccc2nc1-c1ccsc1` (stereo not shown) [Compound 31], which melting point is on record?
**A.** Its melting point is 113 °C.

**Q.** With `CCc1cc2cc(C(=O)C3CCC(OC)CC3)ccc2n2nnnc12` (stereo not shown) [Compound 35] as the compound, how does the melting point read?
**A.** Its melting point is 160 °C.

**Q.** And the IC50 [3, 4]?
**A.** Its IC50 is 0.0437 µM.

**Q.** Which melting point does the source give for `Cc1cc2cc(C(=O)C3CCCCC3)ccc2[nH]c1=O` [Compound 50, 6-(cyclohexylcarbonyl)-3-methyl-2(1H)-quinolinone] here?
**A.** Its melting point is 256.1 °C.

**Q.** With `CCc1cc2cc(/C(=N\N)C3CCC(OC)CC3)ccc2nc1OC` (stereo not shown) [Compound 53] as the compound, how does the melting point read?
**A.** The melting point was 110 °C.

**Q.** With `CCOC(=O)c1cc2cc(C(=O)Cc3ccccc3)ccc2nc1C` [Compound 306] as the compound, how does the melting point read?
**A.** The melting point was 136 °C.

**Q.** With `O=C(c1ccc2nc3c(cc2c1)CCS3)[C@H]1CC[C@@H](O)CC1` [Compound 421] as the compound, how does the IC50 [3, 4] read?
**A.** Its IC50 is 0.0115 µM.

**Q.** Which IC50 [3, 4] does the source give for `O=C(c1ccc2nc3c(cc2c1)CCS3)[C@H]1CC[C@H](O)CC1` [Compound 422] here?
**A.** The IC50 was 0.0955 µM.

**Q.** For `COC1CCC(C(=O)c2ccc3nc4c(cc3c2)CCN4C)CC1` (stereo not shown) [Compound 423], which IC50 [3, 4] is on record?
**A.** The IC50 was 0.0129 µM.

**Q.** For `O=C(c1ccc2nc3c(cc2c1)CCS3)C1CCCCC1` [Compound 427], which IC50 [3, 5] is on record?
**A.** The IC50 was 0.00767 µM.

**Q.** With `COC1CCC(C(=O)c2ccc3nc4c(cc3c2)CCO4)CC1` (stereo not shown) [Compound 429] as the compound, how does the IC50 [3, 5] read?
**A.** The IC50 was 0.00417 µM.

**Q.** And the IC50 [3, 4]?
**A.** Its IC50 is 0.0437 µM.

**Q.** With `CC1CCC(C(=O)c2ccc3nc4c(cc3c2)CCS4)CC1` (stereo not shown) [Compound 430] as the compound, how does the IC50 [3, 4] read?
**A.** The IC50 was 0.0407 µM.

**Q.** For `CC1CCC(C(=O)c2ccc3nc4c(cc3c2)CCS4)CC1` (stereo not shown) [Compound 431], which IC50 [3, 4] is on record?
**A.** The IC50 was 0.0245 µM.

**Q.** Which IC50 [3, 5] does the source give for `O=C(Cc1ccccc1)c1ccc2nc3c(cc2c1)CCCO3` [Compound 432] here?
**A.** The IC50 was 0.00579 µM.

**Q.** For `O=C(c1ccc2nc3c(cc2c1)CCCO3)C12CC3CC(CC(C3)C1)C2` [Compound 433], which IC50 [3, 4] is on record?
**A.** Its IC50 is 0.0162 µM.

**Q.** For `O=C(CCc1ccccc1)c1ccc2nc3c(cc2c1)CCCO3` [Compound 434], which IC50 [3, 4] is on record?
**A.** The IC50 was 0.0832 µM.

**Q.** With `O=C(c1ccc2nc3c(cc2c1)CCCO3)C1CC=CCC1` (stereo not shown) [Compound 435] as the compound, how does the IC50 [3, 4] read?
**A.** The IC50 was 0.0417 µM.

**Q.** Which IC50 [3, 4] does the source give for `O=C(c1ccc2nc3c(cc2c1)CCCO3)C1CCc2ccccc2C1` (stereo not shown) [Compound 436] here?
**A.** Its IC50 is 0.055 µM.
